Measured values reported in ChEMBL document CHEMBL5523671, “ω-(5-Phenyl-2H-tetrazol-2-yl)alkyl-substituted glycine amides and related compounds as inhibitors of the amine oxidase vascular adhesion protein-1 (VAP-1)” (Bioorg Med Chem, 2024).
pIC50: −log10 of the molar value. Calls of active or inactive are those of the source. The rule behind the calls is not given here.

Tests used:
[1] = target: T1, VAP-1 (amine oxidase [copper-containing] 3) (Bos taurus, UniProt Q9TTK6); assay: Stability of compound assessed as bovine plasma VAP-1 mediated drug degradation by measuring parent compound remaining at 10 uM incubated for 15 mins by HPLC-MS analysis; type: ADME, cell-free; settings: cattle, bovine plasma VAP-1 (amine oxidase [copper-containing] 3), read-out: Stability
T1 sequence (Q9TTK6 whole entry): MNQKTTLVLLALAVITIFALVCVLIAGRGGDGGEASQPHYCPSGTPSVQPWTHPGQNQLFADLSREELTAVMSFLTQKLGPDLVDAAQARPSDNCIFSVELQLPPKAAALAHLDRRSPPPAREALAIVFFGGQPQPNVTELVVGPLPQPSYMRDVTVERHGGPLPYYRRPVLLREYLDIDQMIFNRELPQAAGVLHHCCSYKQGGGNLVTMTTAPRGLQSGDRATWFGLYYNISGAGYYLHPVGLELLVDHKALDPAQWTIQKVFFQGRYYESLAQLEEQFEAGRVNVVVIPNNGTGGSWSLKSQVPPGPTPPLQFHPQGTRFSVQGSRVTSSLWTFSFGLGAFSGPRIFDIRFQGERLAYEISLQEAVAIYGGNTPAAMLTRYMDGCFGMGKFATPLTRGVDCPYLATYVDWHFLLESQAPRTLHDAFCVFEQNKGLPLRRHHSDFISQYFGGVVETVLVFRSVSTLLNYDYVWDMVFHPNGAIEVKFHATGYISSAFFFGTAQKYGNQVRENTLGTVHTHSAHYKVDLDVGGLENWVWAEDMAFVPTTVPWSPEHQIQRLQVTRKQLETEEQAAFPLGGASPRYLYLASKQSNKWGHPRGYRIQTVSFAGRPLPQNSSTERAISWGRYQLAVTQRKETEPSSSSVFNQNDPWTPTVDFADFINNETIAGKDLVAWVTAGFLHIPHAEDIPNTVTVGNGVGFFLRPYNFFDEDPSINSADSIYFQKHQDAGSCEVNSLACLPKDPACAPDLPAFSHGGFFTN

[2] = target: T1, VAP-1 (amine oxidase [copper-containing] 3); assay: Stability of compound assessed as bovine plasma VAP-1 mediated drug degradation by measuring parent compound remaining at 10 uM incubated for 60 mins by HPLC-MS analysis; type: ADME, cell-free; settings: cattle, bovine plasma VAP-1 (amine oxidase [copper-containing] 3), read-out: Stability
[3] = target: T2, Amine oxidase [copper-containing] 3 (Bos taurus, UniProt Q9TTK6); assay: Inhibition of bovine plasma VAP-1 using 6-(5-Pheny1-2H-tetrazol-2-yl)hexan-1-amine as substrate preincubated with enzyme for 15 mins followed by substrate addition measured after 30 mins by UV-HPLC analysis; type: cell-free
T2 sequence (Q9TTK6 whole entry): T1 sequence (Q9TTK6 whole entry)

[4] = Selectivity index, ratio of IC50 for human plasma VAP-1 to IC50 for bovine plasma VAP-1
[5] = target: T1, VAP-1 (amine oxidase [copper-containing] 3); assay: Stability of compound assessed as bovine plasma VAP-1 mediated drug degradation by measuring parent compound remaining at 10 uM incubated for 120 mins by HPLC-MS analysis; type: ADME, cell-free; settings: cattle, bovine plasma VAP-1 (amine oxidase [copper-containing] 3), read-out: Stability
[6] = target: T2, Amine oxidase [copper-containing] 3; assay: Stability of compound assessed as bovine plasma VAP-1 mediated drug degradation by measuring formation of aldehyde metabolite at 1 to 10 uM incubated for 60 to 120 mins by HPLC-MS analysis; type: ADME, cell-free; settings: cattle, dose lower 1 µM, time lower 60 min, dose upper 10 µM, time upper 120 min
[7] = target: T1, VAP-1 (amine oxidase [copper-containing] 3); assay: Stability of compound assessed as bovine plasma VAP-1 mediated drug degradation by measuring parent compound remaining at 10 uM incubated for 30 mins by HPLC-MS analysis; type: ADME, cell-free; settings: cattle, bovine plasma VAP-1 (amine oxidase [copper-containing] 3), read-out: Stability
[8] = target: T2, Amine oxidase [copper-containing] 3; assay: Inhibition of bovine plasma VAP-1 using 6-(5-Pheny1-2H-tetrazol-2-yl)hexan-1-amine as substrate measured after 30 mins by UV-HPLC analysis; type: cell-free
[9] = target: T3, Amine oxidase [copper-containing] 3 (Homo sapiens, UniProt Q16853); assay: Inhibition of human plasma VAP-1 using 6-(5-Pheny1-2H-tetrazol-2-yl)hexan-1-amine as substrate preincubated with enzyme for 15 mins followed by substrate addition measured after 120 mins by UV-HPLC analysis; type: cell-free
T3 sequence (Q16853 whole entry): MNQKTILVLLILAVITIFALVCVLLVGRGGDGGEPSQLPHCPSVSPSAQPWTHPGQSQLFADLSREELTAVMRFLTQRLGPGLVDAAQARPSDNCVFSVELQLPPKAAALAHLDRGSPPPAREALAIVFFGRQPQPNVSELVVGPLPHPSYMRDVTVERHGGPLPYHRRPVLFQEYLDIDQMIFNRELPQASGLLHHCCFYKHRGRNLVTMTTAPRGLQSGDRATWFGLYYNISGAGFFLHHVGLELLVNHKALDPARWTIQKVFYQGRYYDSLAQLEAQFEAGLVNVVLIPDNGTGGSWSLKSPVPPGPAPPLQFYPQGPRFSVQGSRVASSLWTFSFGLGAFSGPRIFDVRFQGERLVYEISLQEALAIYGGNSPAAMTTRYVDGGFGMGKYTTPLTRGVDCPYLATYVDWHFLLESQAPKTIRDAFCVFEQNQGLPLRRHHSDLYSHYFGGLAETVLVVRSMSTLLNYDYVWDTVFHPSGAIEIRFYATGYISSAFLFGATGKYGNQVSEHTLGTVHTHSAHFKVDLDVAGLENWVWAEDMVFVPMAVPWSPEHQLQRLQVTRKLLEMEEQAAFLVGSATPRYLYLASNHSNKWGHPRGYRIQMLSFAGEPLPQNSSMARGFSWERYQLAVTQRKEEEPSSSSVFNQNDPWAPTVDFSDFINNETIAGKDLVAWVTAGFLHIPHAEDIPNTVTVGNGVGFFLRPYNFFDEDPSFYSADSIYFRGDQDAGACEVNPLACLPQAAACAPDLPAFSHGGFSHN

[10] = target: T4, Amine oxidase [copper-containing] 3 (Bos taurus) (UniProt Q9TTK6); assay: Inhibition of bovine plasma VAP-1 using 6-(5-Pheny1-2H-tetrazol-2-yl)hexan-1-amine as substrate at 10 uM preincubated with enzyme for 15 mins followed by substrate addition measured after 30 mins by UV-HPLC analysis relative to control; type: cell-free; settings: time 45.0 min
T4 sequence (whole entry): T1 sequence (Q9TTK6 whole entry)

[11] = target: T4, Amine oxidase [copper-containing] 3 (Bos taurus); assay: Inhibition of bovine plasma VAP-1 using 6-(5-Pheny1-2H-tetrazol-2-yl)hexan-1-amine as substrate at 10 uM measured after 30 mins by UV-HPLC analysis relative to control; type: cell-free

| pIC50 [3] | pIC50 [8] | inhibition [10] | inhibition [11] | further results | Structure (SMILES) |
| --- | --- | --- | --- | --- | --- |
| 5.35 | 5.64 |  |  | remaining at 0.25 h, 10 µM [1]: 82%; remaining at 1 h, 10 µM [2]: 23%; Ratio IC50 [4]: 2; remaining at 2 h, 10 µM [5]: < 5%; Stability [6]: Unstable; remaining at 0.5 h, 10 µM [7]: 63%; pIC50 [9]: 4.54 | CS(=O)(=O)c1ccc(-c2nnn(CCCCCCNC(=O)CN)n2)cc1 |
| 5.11 | 5.25 |  |  |  | NCC(=O)NCCCCCCn1nnc(-c2cccs2)n1 |
|  |  | inactive | inactive |  | NCC(=O)NC1CCC(CCn2nnc(-c3ccccc3)n2)CC1 (stereo not given) |
| 5.23 | 5.04 |  |  | remaining at 0.25 h, 10 µM [1]: 89%; remaining at 1 h, 10 µM [2]: 69%; remaining at 2 h, 10 µM [5]: 45%; remaining at 0.5 h, 10 µM [7]: 82% | NCC(=O)NCc1ccc(Cn2nnc(-c3ccccc3)n2)cc1 |
|  |  |  |  | remaining at 0.25 h, 10 µM [1]: < 5%; remaining at 1 h, 10 µM [2]: < 5%; remaining at 2 h, 10 µM [5]: < 5%; remaining at 0.5 h, 10 µM [7]: < 5% | NCCCCCCn1nnc(-c2ccccc2)n1 |
| < 5.00 | < 5.00 | 49% | 40% |  | NCC(=O)NCCCCCCn1nnc(-c2ccccn2)n1 |
| < 5.00 | < 5.00 | 29% | 14% |  | NCC(=O)NCCCCn1nnc(-c2ccccc2)n1 |
| 5.10 | 5.16 |  |  |  | NCC(=O)NCCCCCCn1cc(-c2ccccc2)cn1 |
| 5.17 | 5.20 |  |  |  | NCC(=O)NCCCCCCn1nnc(-c2ccsc2)n1 |
| < 5.00 | < 5.00 | 37% | 42% |  | NCC(=O)NCCCCCCn1ccc(-c2ccccc2)n1 |
| < 5.00 |  | 31% | inactive |  | NCC(=O)NCCn1nnc(-c2ccccc2)n1 |
| 5.15 | 5.21 |  |  |  | NCC(=O)NCCCCCCn1ncc(-c2ccccc2)n1 |
| 5.28 | 5.40 |  |  |  | NCC(=O)NCCCCCCn1nnc(-c2ccc(C(N)=O)cc2)n1 |
| < 5.00 | < 5.00 | 49% | 43% | remaining at 0.25 h, 10 µM [1]: 95%; remaining at 1 h, 10 µM [2]: 65%; Ratio IC50 [4]: 2; remaining at 2 h, 10 µM [5]: 45%; remaining at 0.5 h, 10 µM [7]: 85%; pIC50 [9]: 4.70 | CN(Cc1cccc(Cn2nnc(-c3ccccc3)n2)c1)C(=O)CN |
| 5.32 | 5.51 |  |  |  | NCC(=O)NCCCCCCCCn1nnc(-c2ccccc2)n1 |
| < 5.00 | < 5.00 | 18% | 19% |  | NCC(=O)N1CCC(CCCn2nnc(-c3ccccc3)n2)CC1 |
| < 5.00 | < 5.00 | 33% | 41% |  | NCC(=O)NCCCCCCn1cnc(-c2ccccc2)c1 |
| 5.37 | 5.46 |  |  |  | NCC(=O)NCCCCCCn1nnc(-c2ccc(Cl)cc2)n1 |
| 5.20 | 5.21 |  |  |  | COc1ccc(-c2nnn(CCCCCCNC(=O)CN)n2)cc1 |
| < 5.00 | < 5.00 | 18% | 20% |  | NCC(=O)Nc1ccc(CCn2nnc(-c3ccccc3)n2)cc1 |
| 5.18 | 5.24 |  |  |  | NCC(=O)NCCCCCCCn1nnc(-c2ccccc2)n1 |
| 5.29 | 5.33 |  |  |  | Cc1ccc(-c2nnn(CCCCCCNC(=O)CN)n2)cc1 |
| 5.27 | 5.21 |  |  |  | NCC(=O)NCCCCCCn1nnc(-c2ccncc2)n1 |
| < 5.00 | 5.03 | 45% |  |  | NCC(=O)NCCCCCn1nnc(-c2ccccc2)n1 |
|  |  | inactive | inactive |  | NCC(=O)NCCCCCCn1nnc(-c2ccc(C(=O)O)cc2)n1 |
| < 5.00 | < 5.00 | 45% | 44% |  | NCC(=O)NCCCCCCn1nnc(-c2cccnc2)n1 |
| < 5.00 | < 5.00 | 29% | 13% |  | NCC(=O)NCCCn1nnc(-c2ccccc2)n1 |
| 5.25 | 5.12 |  |  |  | NCC(=O)NCCCCCCn1nnc(-c2ccc(N3CCOCC3)cc2)n1 |
| 5.21 | 5.14 |  |  |  | COC(=O)c1ccc(-c2nnn(CCCCCCNC(=O)CN)n2)cc1 |
| < 5.00 | < 5.00 | 18% | 30% | remaining at 0.25 h, 10 µM [1]: 91%; remaining at 1 h, 10 µM [2]: 84%; remaining at 2 h, 10 µM [5]: 56%; remaining at 0.5 h, 10 µM [7]: 86% | NCC(=O)NCc1ccccc1Cn1nnc(-c2ccccc2)n1 |
